# Laboratory results taken from patent US4861788A, “Antibacterial 1-normon-2-yl-heterocyclic compounds” (Beecham Group plc, priority 1983, dated 1989).
# Read-outs that look alike come from different tables or passages of the source.
# Experiments:
# [1] = system: M. hyopneumoniae LABER; test: MIC against Mycoplasma in vitro (Friis broth with agarose); format: cell-based; settings: Mesomycoplasma hyopneumoniae, 144 h; M. hyopneumoniae LABER; 6 days at 37° C; read-out: MIC
# [2] = system: Neisseria catarrhalis 1502; test: MIC against human bacteria in vitro (nutrient agar, chocolated horse blood); format: cell-based; settings: Neisseria, 1502, 18 h
# Procedure: (§1) The activity of the normonyl derivaties of the Examples against various bacteria which are important in diseases of humans, was assayed in vitro using serial dilutions in nurient agar with 5% chocolated horse blood.
# [3] = system: K. aerogenes A; test: as above; format: cell-based; settings: Klebsiella aerogenes; human; K. aerogenes A; 18 hours at 37° C; read-out: MIC
# Procedure: as §1
# [4] = system: Staph. aureus Russell; test: as above; format: cell-based; settings: Staphylococcus aureus; human; Staph. aureus Russell; 18 hours at 37° C; read-out: MIC
# Procedure: as §1
# [5] = system: Pasteurella multocida 1633; test: as above; format: cell-based; settings: human; Pasteurella multocida 1633; 18 hours at 37° C; read-out: MIC
# Procedure: as §1
# [6] = system: E. coli NCTC 10418; test: as above; format: cell-based; settings: Escherichia coli, NCTC10418; human; E. coli NCTC 10418; 18 hours at 37° C; read-out: MIC
# Procedure: as §1
# [7] = system: Strep. faecalis I; test: as above; format: cell-based; settings: Enterococcus faecalis; human; Strep. faecalis I; 18 hours at 37° C; read-out: MIC
# Procedure: as §1
# [8] = system: Staph. aureus Oxford; test: as above; format: cell-based; settings: Staphylococcus aureus; human; Staph. aureus Oxford; 18 hours at 37° C; read-out: MIC
# Procedure: as §1
# [9] = system: E. coli ESS; test: as above; format: cell-based; settings: Escherichia coli; human; E. coli ESS; 18 hours at 37° C; read-out: MIC
# Procedure: as §1
# [10] = system: Corynebacterium xerosis 9755; test: as above; format: cell-based; settings: human; Corynebacterium xerosis 9755; 18 hours at 37° C; read-out: MIC
# Procedure: as §1
# [11] = system: Bacillus subtilis 6633; test: as above; format: cell-based; settings: human; Bacillus subtilis 6633; 18 hours at 37° C; read-out: MIC
# Procedure: as §1
# [12] = system: P. mirabilis 889; test: as above; format: cell-based; settings: Proteus mirabilis; human; P. mirabilis 889; 18 hours at 37° C; read-out: MIC
# Procedure: as §1
# [13] = system: Strep. pyogenes R80/421-A; test: as above; format: cell-based; settings: Streptococcus pyogenes; human; Strep. pyogenes R80/421-A; 18 hours at 37° C; read-out: MIC
# Procedure: as §1
# [14] = system: Staph. aureus W2827; test: as above; format: cell-based; settings: Staphylococcus aureus; human; Staph. aureus W2827; 18 hours at 37° C; read-out: MIC
# Procedure: as §1
# [15] = system: Ps. aeruginosa NCTC 10662; test: as above; format: cell-based; settings: Pseudomonas aeruginosa, NCTC10662; human; Ps. aeruginosa NCTC 10662; 18 hours at 37° C; read-out: MIC
# Procedure: as §1
# [16] = system: Strep. pneumoniae CN33; test: as above; format: cell-based; settings: Streptococcus pneumoniae; human; Strep. pneumoniae CN33; 18 hours at 37° C; read-out: MIC
# Procedure: as §1
# [17] = system: Strep. agalactiae 2788-B; test: as above; format: cell-based; settings: Streptococcus agalactiae; human; Strep. agalactiae 2788-B; 18 hours at 37° C; read-out: MIC
# Procedure: as §1
# [18] = system: Strep. spp. 64/848-C; test: as above; format: cell-based; settings: human; Strep. spp. 64/848-C; 18 hours at 37° C; read-out: MIC
# Procedure: as §1
# [19] = system: Haemophilus influenzae Wy21; test: as above; format: cell-based
# Procedure: as §1
# [20] = system: M. hyopneumoniae NB12; test: MIC against Mycoplasma in vitro (Friis broth with agarose); format: cell-based; settings: Mesomycoplasma hyopneumoniae
# [21] = system: Staph. aureus Oxford; test: MIC against veterinary bacteria in vitro (Diagnostic Sensitivity Test Agar); settings: Staphylococcus aureus, 18 h
# Procedure: (§2) The activity of the normonyl derivatives of the Examples against various veterinarily important bacteria, was assayed in vitro using two-fold serial dilutions in Diagnostic Sensitivity Test Agar inoculated with 10^4 organisms.
# [22] = system: S. dublin S7; test: as above; settings: Salmonella enterica, S7, 18 h
# Procedure: as §2
# [23] = system: M. hyorhinis ATCC 23234; test: MIC against Mycoplasma in vitro (Friis broth with agarose); format: cell-based; settings: Mesomycoplasma hyorhinis, ATCC23234, 144 h; M. hyorhinis ATCC 23234; 6 days at 37° C; read-out: MIC
# [24] = system: M. hyopneumoniae HK (2); test: as above; format: cell-based; settings: Mesomycoplasma hyopneumoniae, 144 h
# [25] = system: Past. haemolytica PA5; test: MIC against veterinary bacteria in vitro (Diagnostic Sensitivity Test Agar); settings: Mannheimia haemolytica, PA5, 18 h
# Procedure: as §2
# [26] = system: Sarcina lutea 8340; test: MIC against human bacteria in vitro (nutrient agar, chocolated horse blood); format: cell-based; settings: Micrococcus luteus; human; Sarcina lutea 8340; 18 hours at 37° C; read-out: MIC
# Procedure: as §1
# [27] = system: B. subtilis ATCC 6633; test: MIC against veterinary bacteria in vitro (Diagnostic Sensitivity Test Agar); settings: Bacillus subtilis, ATCC6633, 18 h
# Procedure: as §2
# [28] = system: M. hyopneumoniae PW/C/210; test: MIC against Mycoplasma in vitro (Friis broth with agarose); format: cell-based; settings: Mesomycoplasma hyopneumoniae, 144 h; M. hyopneumoniae PW/C/210; 6 days at 37° C; read-out: MIC
# [29] = human, Haemophilus influenzae Wy21, 18 hours at 37° C, read-out: MIC
SMILES,MIC [1] [µg/mL],MIC [3] [µg/mL],MIC [4] [µg/mL],MIC [5] [µg/mL],MIC [6] [µg/mL],MIC [7] [µg/mL],MIC [8] [µg/mL],MIC [9] [µg/mL],MIC [10] [µg/mL],MIC [11] [µg/mL],MIC [12] [µg/mL],MIC [13] [µg/mL],MIC [14] [µg/mL],MIC [15] [µg/mL],MIC [17] [µg/mL],MIC [18] [µg/mL],"MIC ([20]; NB12, 144 h) [µg/mL]",MIC [21] [µg/mL],MIC [22] [µg/mL],MIC [23] [µg/mL],also measured
"CC(=Cc1nnc(-c2cccc([N+](=O)[O-])c2)o1)CC1OCC(CC2OC2C(C)C(C)O)C(O)C1O (stereo not drawn) [Example 2, 2-m-Nitrophenyl-5-(1-normon-2-yl)-1,3,4-oxadiazole A]",0.025,> 128,64,2,> 128,> 128,16,4,> 128,4,> 128,4,64,> 128,32,32,0.05,20,> 80,0.025,"MIC [2]: 0.5 µg/mL; MIC [16]: 32 µg/mL; MIC ([19]; Haemophilus influenzae, WY21, 18 h): 0.5 µg/mL; MIC [24]: 0.05 µg/mL; MIC [25]: 10 µg/mL"
"CC(=Cc1nnc(-c2ccc(S(C)(=O)=O)cc2)o1)CC1OCC(CC2OC2C(C)C(C)O)C(O)C1O (stereo not drawn) [Example 4, 2-p-Methylsulphonylphenyl-5-(1-normon-2-yl)-1,3,4-oxadiazole A]",0.25,> 64,32,4,> 64,> 64,8,4,> 64,16,> 64,16,32,> 64,16,16,–,10,> 80,0.1,"MIC [26]: > 64 µg/mL; MIC [19, 29]: 1 µg/mL; MIC [27]: 5 µg/mL; MIC ([20]; 144 h, M. hyopneumoniae NB12, 6 days at 37° C, read-out: MIC): 0.25 µg/mL; MIC [28]: 0.1 µg/mL; MIC ([24]; M. hyopneumoniae HK (2), 6 days at 37° C, read-out: MIC): 0.25 µg/mL; MIC [25]: 20 µg/mL"
"CC(=Cc1nnc(-c2cccnc2)o1)CC1OCC(CC2OC2C(C)C(C)O)C(O)C1O (stereo not drawn) [Example 5, 2-(1-Normon-2-yl)-5-(3-pyridyl)-1,3,4-oxadiazole A]",1,> 128,32,1,> 128,> 128,8,4,> 128,4,> 128,8,32,> 128,32,32,2.5,20,> 80,1,"MIC [26]: > 128 µg/mL; MIC [19, 29]: 0.5 µg/mL; MIC [27]: 2.5 µg/mL; MIC [28]: 1 µg/mL"
